These results are taken from patent publication US9066894B2, “Carbohydrate binding molecules” (priority 2008, dated 2015).

The structures appear in SMILES notation. Where “and” joins values, the source holds several entries; their conditions need not be identical. Identical values can stand only once.

Broadly, the Kd is the concentration at which binding is half-saturated. A high value points to a looser complex.

For the test, the target named is isolated CBM40 from V. cholerae sialidase (Vibrio cholerae serotype O1, UniProt P0C6E9). Particulars: ITC, 25° C.; for n (number of binding sites): 10 mM HEPES pH7.4, 0.15M NaCl. (In ITC the heat of successive injections is recorded.)
isolated CBM40 from V. cholerae sialidase, sequence (P0C6E9 25-216): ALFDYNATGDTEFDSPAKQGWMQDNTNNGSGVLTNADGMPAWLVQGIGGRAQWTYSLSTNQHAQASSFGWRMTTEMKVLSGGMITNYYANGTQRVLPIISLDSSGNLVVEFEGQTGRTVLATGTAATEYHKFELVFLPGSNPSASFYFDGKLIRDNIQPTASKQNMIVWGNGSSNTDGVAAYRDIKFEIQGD

`CC(=O)N[C@H]1[C@H]([C@H](O)[C@H](O)CO)O[C@@](O[C@H]2[C@@H](O)[C@@H](CO)O[C@@H](O[C@H]3[C@H](O)[C@@H](O)C(O)O[C@@H]3CO)[C@@H]2O)(C(=O)O)C[C@@H]1O` (stereo partly drawn) [3′SL, 3′sialyllactose]: the Ka is given as 5.48 ± 0.05 10^−4M, binding was put at a Kd of 18 µM, the TΔS was -9.8 kcal/mol and the ΔG is -6.5 kcal/mol. Besides, the ΔH was -16.3 ± 0.05 kcal/mol and the “n (number of binding sites)” value stood at 0.96 ± 0.002.

Regarding `CC(=O)N[C@H]1[C@H]([C@H](O)[C@H](O)CO)O[C@@](OC[C@H]2O[C@@H](O[C@H]3[C@H](O)[C@@H](O)[C@H](O)O[C@@H]3CO)[C@H](O)[C@@H](O)[C@H]2O)(C(=O)O)C[C@@H]1O` [6′SL, 6′sialyllactose], the Ka is 5.16 ± 0.03 10^−4M, binding was put at a Kd of 19 µM, the TΔS was -3.5 kcal/mol and the ΔG was -6.4 kcal/mol. The ΔH is -9.9 ± 0.002 kcal/mol and the “n (number of binding sites)” value was 1.02 ± 0.001.

Consider `CC(=O)N[C@H]1[C@H]([C@H](O)[C@H](O)CO)O[C@@](O[C@H](CO)[C@@H](O)[C@@H]2O[C@@](O[C@H]3[C@@H](O)[C@@H](CO)O[C@@H](O[C@H]4[C@H](O)[C@@H](O)C(O)O[C@@H]4CO)[C@@H]3O)(C(=O)O)C[C@H](O)[C@H]2NC(C)=O)(C(=O)O)C[C@@H]1O` (stereo partly drawn) [DSL, disialyllactose], for which the Ka is recorded as 10.2 ± 0.01 10^−4M, the Kd was 9.8 µM, the TΔS is -5.7 kcal/mol and the ΔG is -6.8 kcal/mol. The ΔH was -12.5 kcal/mol and -12.5 ± 0.003 kcal/mol; the “n (number of binding sites)” value is 0.92 and 0.92 ± 0.001.

Consider `CC(=O)N[C@H]1[C@H](O[C@H]2[C@@H](O)[C@@H](CO)O[C@@H](O[C@@H]([C@H](O)[C@@H](O)C=O)[C@H](O)CO)[C@@H]2O)O[C@H](CO[C@]2(C(=O)O)C[C@H](O)[C@@H](NC(C)=O)[C@H]([C@H](O)[C@H](O)CO)O2)[C@@H](O)[C@@H]1O[C@@H]1O[C@H](CO)[C@H](O)[C@H](O[C@]2(C(=O)O)C[C@H](O)[C@@H](NC(C)=O)[C@H]([C@H](O)[C@H](O)CO)O2)[C@H]1O` [DSLNT, disialyl-lacto-N-tetraose], for which the Ka is recorded as 7.8 ± 0.06 10^−4M, binding was characterised by a dissociation constant (Kd) of 13 µM, the TΔS is -17.3 kcal/mol and the ΔG was -6.7 kcal/mol. The ΔH is -24 kcal/mol and -24.0 ± 0.007 kcal/mol; the “n (number of binding sites)” value was 0.57 and 0.57 ± 0.001.
